Reference: patent publication US20240115654A1, “INTRAVENOUS ADMINISTRATION OF ENGINEERED ANTIMICROBIAL AMPHIPHILIC PEPTIDES” (priority 2021, published 2024)
Peptide text beside a SMILES is read from it.

From the text: All subjects who met eligibility criteria were confined to the clinical research unit from […] through Day 3. At admission, physical examination, vital signs, 12 lead ECG and weight were obtained, medical and medication history were updated if necessary, safety blood tests (hematology and chemistry), urinalysis, urine drug screen and an alcohol breath test were repeated and a urine pregnancy test was done for women of childbearing potential.
At each dose level, there were 2 sentinel subjects, (1 active, 1 placebo), who were dosed at least 48 hours in advance of the other subjects in their respective group. Following review of safety data, including physical examination, vital signs, and review of adverse events from the first 2 subjects, enrolment in the cohort continued.
A 12-lead ECG was performed on Day 1, within 60 minutes of infusion start (in triplicate), mid-way through the infusion, at the completion of the infusion, 30 minutes after completion of the infusion and at various timepoints following the end of the infusion.
Vital signs were recorded within 60 minutes pre-dose, at the mid-point of the infusion and post dose vitals were assessed at completion of the infusion, 0.5, 1, 2, 3, 4, 6, 9, 12, 24 and 48 hours post dose, after at least 3 minutes of rest in supine position.
Subjects returned to the study center 7 days after dosing, for the termination visit. A full physical examination, vital signs and weight were obtained, concomitant medications were updated if necessary, safety blood specimens (haematology and chemistry, PT and aPTT) and urine were collected for urinalysis and urine drug screening. A serum pregnancy test was done for women of childbearing potential and a 12-lead ECG was performed.
In this study dose limiting toxicity (DLT) was defined as any drug related ≥Grade 3 AEs occurring despite optimal therapeutic interventions (which included but were not limited to allergic/hypersensitivity reactions, dermatological reactions/infusion site reactions, haematological toxicities such as neutropenia, thrombocytopenia and anaemia and clinical chemistry abnormalities) experienced up to Day 7 (Termination Visit).
(§1) All subjects who received any amount of study drug were included in the safety analysis (Safety population).
The study was a double blinded, randomized, placebo-controlled study. The placebo administered was 0.9% sodium chloride.
On Day 1 (day of dosing), subjects were randomly assigned either peptide IV or Placebo IV. At each dose level, there were 2 sentinel subjects, (1 active, 1 placebo), who were dosed at least 48 hours in advance of the other subjects in their respective group. Following review of safety data, including physical examination, vital signs, and review of adverse events from the first 2 subjects, enrolment in the cohort continued. All subjects who met eligibility criteria were confined to the clinical research unit from Day −2 through Day 3. At admission, physical examination, vital signs, 12 lead ECG and weight were obtained, medical and medication history were updated if necessary, safety blood tests (hematology and chemistry), urinalysis, urine drug screen and an alcohol breath test were repeated and a urine pregnancy test was done for women of childbearing potential.
as §1

SMILES: CC(C)[C@H](NC(=O)[C@H](Cc1c[nH]c2ccccc12)NC(=O)[C@H](CCCNC(=N)N)NC(=O)[C@H](CCCNC(=N)N)NC(=O)[C@@H](NC(=O)[C@@H](NC(=O)[C@H](CCCNC(=N)N)NC(=O)[C@@H](NC(=O)[C@@H](NC(=O)[C@H](CCCNC(=N)N)NC(=O)[C@H](CCCNC(=N)N)NC(=O)[C@H](Cc1c[nH]c2ccccc12)NC(=O)[C@@H](NC(=O)[C@H](CCCNC(=N)N)NC(=O)[C@H](CCCNC(=N)N)NC(=O)[C@@H](NC(=O)[C@H](CCCNC(=N)N)NC(=O)[C@H](CCCNC(=N)N)NC(=O)[C@@H](NC(=O)[C@H](Cc1c[nH]c2ccccc12)NC(=O)[C@H](CCCNC(=N)N)NC(=O)[C@@H](N)CCCNC(=N)N)C(C)C)C(C)C)C(C)C)C(C)C)C(C)C)C(C)C)C(C)C)C(=O)N[C@@H](CCCNC(=N)N)C(=O)N[C@@H](CCCNC(=N)N)C(N)=O [SEQ ID NO: 1] (H-RRWVRRVRRVWRRVVRVVRRWVRR-NH2)
- TEAE severity Grade 5, participants n (%) (Pooled SEQ ID NO: 1 (N = 35)): 0
- Treatment-related TEAE: Abdominal distension, occurrences m (Pooled SEQ ID NO: 1 (N = 35)): 1
- Treatment-related TEAE: Abdominal distension, participants n (%) (Pooled SEQ ID NO: 1 (N = 35)): 1 (2.9%)
- Treatment-related TEAE: Blood and Lymphatic System Disorders, participants n (%) (Pooled SEQ ID NO: 1 (N = 35)): 0
- Treatment-related TEAE: Constipation, participants n (%) (Pooled SEQ ID NO: 1 (N = 35)): 0
- Treatment-related TEAE: Diarrhea, occurrences m (Pooled SEQ ID NO: 1 (N = 35)): 1
- Treatment-related TEAE: Diarrhea, participants n (%) (Pooled SEQ ID NO: 1 (N = 35)): 1 (2.9%)
- Treatment-related TEAE: Dizziness, occurrences m (Pooled SEQ ID NO: 1 (N = 35)): 1
- Treatment-related TEAE: Dizziness, participants n (%) (Pooled SEQ ID NO: 1 (N = 35)): 1 (2.9%)
- Treatment-related TEAE: Feeling hot, participants n (%) (Pooled SEQ ID NO: 1 (N = 35)): 0
- Treatment-related TEAE: Gastrointestinal Disorders, occurrences m (Pooled SEQ ID NO: 1 (N = 35)): 3
- Treatment-related TEAE: Gastrointestinal Disorders, participants n (%) (Pooled SEQ ID NO: 1 (N = 35)): 2 (5.7%)
- Treatment-related TEAE: General Disorders and Administration Site Conditions, occurrences m (Pooled SEQ ID NO: 1 (N = 35)): 11
- Treatment-related TEAE: General Disorders and Administration Site Conditions, participants n (%) (Pooled SEQ ID NO: 1 (N = 35)): 10 (28.6%)
- Treatment-related TEAE: Headache, occurrences m (Pooled SEQ ID NO: 1 (N = 35)): 1
- Treatment-related TEAE: Headache, participants n (%) (Pooled SEQ ID NO: 1 (N = 35)): 1 (2.9%)
- Treatment-related TEAE: Infusion related reaction, occurrences m (Pooled SEQ ID NO: 1 (N = 35)): 1
- Treatment-related TEAE: Infusion related reaction, participants n (%) (Pooled SEQ ID NO: 1 (N = 35)): 1 (20.0%)
- Treatment-related TEAE: Infusion site discomfort, occurrences m (Pooled SEQ ID NO: 1 (N = 35)): 1
- Treatment-related TEAE: Infusion site discomfort, participants n (%) (Pooled SEQ ID NO: 1 (N = 35)): 1 (2.9%)
- Treatment-related TEAE: Infusion site pain, occurrences m (Pooled SEQ ID NO: 1 (N = 35)): 3
- Treatment-related TEAE: Infusion site pain, participants n (%) (Pooled SEQ ID NO: 1 (N = 35)): 3 (8.6%)
- Treatment-related TEAE: Infusion site reaction, occurrences m (Pooled SEQ ID NO: 1 (N = 35)): 4
- Treatment-related TEAE: Infusion site reaction, participants n (%) (Pooled SEQ ID NO: 1 (N = 35)): 4 (11.4%)
- Treatment-related TEAE: Infusion site swelling, occurrences m (Pooled SEQ ID NO: 1 (N = 35)): 1
- Treatment-related TEAE: Infusion site swelling, participants n (%) (Pooled SEQ ID NO: 1 (N = 35)): 1 (2.9%)
- Treatment-related TEAE: Injury, Poisoning, and Procedural Complications, occurrences m (Pooled SEQ ID NO: 1 (N = 35)): 1
- Treatment-related TEAE: Injury, Poisoning, and Procedural Complications, participants n (%) (Pooled SEQ ID NO: 1 (N = 35)): 1 (20.0%)
- Treatment-related TEAE: Macule, occurrences m (Pooled SEQ ID NO: 1 (N = 35)): 1
- Treatment-related TEAE: Macule, participants n (%) (Pooled SEQ ID NO: 1 (N = 35)): 1 (2.9%)
- Treatment-related TEAE: Musculoskeletal and Connective Tissue Disorders, occurrences m (Pooled SEQ ID NO: 1 (N = 35)): 1
- Treatment-related TEAE: Musculoskeletal and Connective Tissue Disorders, participants n (%) (Pooled SEQ ID NO: 1 (N = 35)): 1 (2.9%)
- Treatment-related TEAE: Myalgia, occurrences m (Pooled SEQ ID NO: 1 (N = 35)): 1
- Treatment-related TEAE: Myalgia, participants n (%) (Pooled SEQ ID NO: 1 (N = 35)): 1 (2.9%)
- Treatment-related TEAE: Oropharyngeal pain, participants n (%) (Pooled SEQ ID NO: 1 (N = 35)): 0
- Treatment-related TEAE: Orthostatic hypotension, occurrences m (Pooled SEQ ID NO: 1 (N = 35)): 1
- Treatment-related TEAE: Orthostatic hypotension, participants n (%) (Pooled SEQ ID NO: 1 (N = 35)): 1 (2.9%)
- Treatment-related TEAE: Pain in extremity, participants n (%) (Pooled SEQ ID NO: 1 (N = 35)): 0
- Treatment-related TEAE: Phlebitis, occurrences m (Pooled SEQ ID NO: 1 (N = 35)): 3
- Treatment-related TEAE: Phlebitis, participants n (%) (Pooled SEQ ID NO: 1 (N = 35)): 3 (8.6%)
- Treatment-related TEAE: Respiratory, Thoracic, and Mediastinal disorders, participants n (%) (Pooled SEQ ID NO: 1 (N = 35)): 0
- Treatment-related TEAE: Skin and Subcutaneous Tissue Disorders, occurrences m (Pooled SEQ ID NO: 1 (N = 35)): 1
- Treatment-related TEAE: Skin and Subcutaneous Tissue Disorders, participants n (%) (Pooled SEQ ID NO: 1 (N = 35)): 1 (2.9%)
- Treatment-related TEAE: Thrombocytopenia, participants n (%) (Pooled SEQ ID NO: 1 (N = 35)): 0
- Treatment-related TEAE: Vascular Disorders, occurrences m (Pooled SEQ ID NO: 1 (N = 35)): 4
- Treatment-related TEAE: Vascular Disorders, participants n (%) (Pooled SEQ ID NO: 1 (N = 35)): 3 (8.6%)
- Treatment-related TEAE: Vessel puncture site erythema, occurrences m (Pooled SEQ ID NO: 1 (N = 35)): 1
- Treatment-related TEAE: Vessel puncture site erythema, participants n (%) (Pooled SEQ ID NO: 1 (N = 35)): 1 (2.9%)
- Treatment-related TEAE: Vessel puncture site pain, occurrences m (Pooled SEQ ID NO: 1 (N = 35)): 1
- Treatment-related TEAE: Vessel puncture site pain, participants n (%) (Pooled SEQ ID NO: 1 (N = 35)): 3 (2.9%)
- Treatment-related TEAE: Vomiting, occurrences m (Pooled SEQ ID NO: 1 (N = 35)): 1
- Treatment-related TEAE: Vomiting, participants n (%) (Pooled SEQ ID NO: 1 (N = 35)): 1 (2.9%)
- Number of Participants Reporting at least: Onc TEAE Leading to Study Withdrawal, n (%) (Pooled active cohorts (N = 35)): 0
- Number of Participants Reporting at least: One Dose-Limiting Toxicity, n (%) (Pooled active cohorts (N = 35)): 0
- Number of Participants Reporting at least: One Related TEAE, n (%) (Pooled active cohorts (N = 35)): 13 (37.1%)
- Number of Participants Reporting at least: One Serious TEAE, n (%) (Pooled active cohorts (N = 35)): 0
- Number of Participants Reporting at least: One TEAE Leading to Study Drug Discontinuation, n (%) (Pooled active cohorts (N = 35)): 2 (5.7%)
- Number of Participants Reporting at least: One TEAE with Common Terminology Criteria for Adverse Events (CTCAE) Toxicity ≥ Grade 3, n (%) (Pooled active cohorts (N = 35)): 0
- Number of Participants Reporting at least: One TEAE, n (%) (Pooled active cohorts (N = 35)): 31 (88.6%)
- One Related TEAE, m (Pooled active cohorts (N = 35)): 23
- One TEAE Leading to Study Drug Discontinuation, m (Pooled active cohorts (N = 35)): 4
- One TEAE, m (Pooled active cohorts (N = 35)): 72
- TEAE Severity Grade 1, m (Pooled active cohorts (N = 35)): 64
- TEAE Severity Grade 1, n (%) (Pooled active cohorts (N = 35)): 30 (85.7%)
- TEAE Severity Grade 2, m (Pooled active cohorts (N = 35)): 8
- TEAE Severity Grade 2, n (%) (Pooled active cohorts (N = 35)): 5 (14.3%)
- overall safety and tolerability (healthy volunteers, 0.05 to 1 mg/kg, drug concentration below 0.50 mg/mL and dose rate below 25 mg/hour): safe and well tolerated
- severity of IRRs in relation to maximum dose rate (maximum dose rate higher (>25 mg/hr)): more severe
